Laboratory results taken from patent US6822146B2, “Sulfonylurea-tolerant sunflower line M7” (priority 2000, dated 2004).

Assays:
Polygonum aviculare = assay: Test H weed control, field plots; assay type: in vivo; set-up: concentration or dose not given beside the values; details: 36 days after treatment; g a.i./ha: tribenuron-methyl 22.5, metsulfuron-methyl 6, ethametsulfuron-methyl 16, imazapyr isopropylamine salt 15, aclonifen 1200
Source text: (§1) Field plots (2 m×5 m) were tilled to remove weed cover and then seeded in rows with the following weeds: Capsella bursa pastoris, Atriplex patula, Chenopodium album, Stellaria media, Mecurialis annua, Polygonum persicaria, Amaranthus retroflexus, Polygonum convolvulus, Polygonum aviculare, Viola arvensis, Matricaria inodora, Anagallis arvensis, Sinapis arvensis, Setaria viridis, Solanum nigrum and Echinochloa crusgalli. After 21 days from sowing, at which time the weeds had reached the 2- to 6-leaf stage, herbicide treatments were applied to the plots according to a complete randomized block design, with each herbicide treatment triply replicated. The herbicides were sprayed using standard flat fan nozzles moved perpendicular to the sown lines using water spray volumes of about 296 L/ha.
(§2) Assessments of weed control were made by visual inspection 36 days after herbicide treatment. A visual rating system was used based on a percentage scale from 0 to 100% compared to an adjacent untreated control plot. On this scale 0 represents no visual differences relative to an untreated control and 100 represents complete control of the given weed species.

Atriplex patula = assay: Test H weed control, field plots; assay type: in vivo; set-up: concentration or dose not given beside the values; details: 36 days after treatment; g a.i./ha: tribenuron-methyl 22.5, metsulfuron-methyl 6, ethametsulfuron-methyl 16, imazapyr isopropylamine salt 15, aclonifen 1200
Source text: as §1, §2

Viola arvensis = assay: Test H weed control, field plots; assay type: in vivo; set-up: concentration or dose not given beside the values; details: 36 days after treatment; g a.i./ha: tribenuron-methyl 22.5, metsulfuron-methyl 6, ethametsulfuron-methyl 16, imazapyr isopropylamine salt 15, aclonifen 1200
Source text: as §1, §2

Echinochloa crus-galli = assay: Test H weed control, field plots; assay type: in vivo; set-up: concentration or dose not given beside the values; details: 36 days after treatment; g a.i./ha: tribenuron-methyl 22.5, metsulfuron-methyl 6, ethametsulfuron-methyl 16, imazapyr isopropylamine salt 15, aclonifen 1200
Source text: as §1, §2

Solanum nigrum = assay: Test H weed control, field plots; assay type: in vivo; set-up: concentration or dose not given beside the values; details: 36 days after treatment; g a.i./ha: tribenuron-methyl 22.5, metsulfuron-methyl 6, ethametsulfuron-methyl 16, imazapyr isopropylamine salt 15, aclonifen 1200
Source text: as §1, §2

Anagallis arvensis = assay: Test H weed control, field plots; assay type: in vivo; set-up: concentration or dose not given beside the values; details: 36 days after treatment; g a.i./ha: tribenuron-methyl 22.5, metsulfuron-methyl 6, ethametsulfuron-methyl 16, imazapyr isopropylamine salt 15, aclonifen 1200
Source text: as §1, §2

Polygonum persicaria = assay: Test H weed control, field plots; assay type: in vivo; set-up: concentration or dose not given beside the values; details: 36 days after treatment; g a.i./ha: tribenuron-methyl 22.5, metsulfuron-methyl 6, ethametsulfuron-methyl 16, imazapyr isopropylamine salt 15, aclonifen 1200
Source text: as §1, §2

Matricaria inodora = assay: Test H weed control, field plots; assay type: in vivo; set-up: concentration or dose not given beside the values; details: 36 days after treatment; g a.i./ha: tribenuron-methyl 22.5, metsulfuron-methyl 6, ethametsulfuron-methyl 16, imazapyr isopropylamine salt 15, aclonifen 1200
Source text: as §1, §2

Amaranthus retroflexus = assay: Test H weed control, field plots; assay type: in vivo; set-up: concentration or dose not given beside the values; details: 36 days after treatment; g a.i./ha: tribenuron-methyl 22.5, metsulfuron-methyl 6, ethametsulfuron-methyl 16, imazapyr isopropylamine salt 15, aclonifen 1200
Source text: as §1, §2

Sinapis arvensis = assay: Test H weed control, field plots; assay type: in vivo; set-up: concentration or dose not given beside the values; details: 36 days after treatment; g a.i./ha: tribenuron-methyl 22.5, metsulfuron-methyl 6, ethametsulfuron-methyl 16, imazapyr isopropylamine salt 15, aclonifen 1200
Source text: as §1, §2

Polygonum convolvulus = assay: Test H weed control, field plots; assay type: in vivo; set-up: concentration or dose not given beside the values; details: 36 days after treatment; g a.i./ha: tribenuron-methyl 22.5, metsulfuron-methyl 6, ethametsulfuron-methyl 16, imazapyr isopropylamine salt 15, aclonifen 1200
Source text: as §1, §2

Capsella bursa pastoris = assay: Test H weed control, field plots; assay type: in vivo; set-up: concentration or dose not given beside the values; details: 36 days after treatment; g a.i./ha: tribenuron-methyl 22.5, metsulfuron-methyl 6, ethametsulfuron-methyl 16, imazapyr isopropylamine salt 15, aclonifen 1200
Source text: as §1, §2

Mercurialis annua = assay: Test H weed control, field plots; assay type: in vivo; set-up: concentration or dose not given beside the values; details: 36 days after treatment; g a.i./ha: tribenuron-methyl 22.5, metsulfuron-methyl 6, ethametsulfuron-methyl 16, imazapyr isopropylamine salt 15, aclonifen 1200
Source text: as §1, §2

Setaria viridis = assay: Test H weed control, field plots; assay type: in vivo; set-up: concentration or dose not given beside the values; details: 36 days after treatment; g a.i./ha: tribenuron-methyl 22.5, metsulfuron-methyl 6, ethametsulfuron-methyl 16, imazapyr isopropylamine salt 15, aclonifen 1200
Source text: as §1, §2

BC4-M5M12 × PHA155 = assay: Test C field phytotoxicity, BC4-M5M12 × PHA155; assay type: in vivo, sunflower
Source text: A rating of 0% phytotoxicity means no crop injury.

[1] = test system: Weeds Agronomically Important in Sunflower Crops; assay: Test H summary; assay type: in vivo; details: tribenuron-methyl 22.5 g a.i./ha, metsulfuron-methyl 6 g a.i./ha
Source text: as §1, §2

[2] = test system: heterozygous resistant hybrids (C to H); details: in vivo
Description: In a small field trial, the sunflower varieties described in Table 4 were sprayed post-emergence with a variety of sulfonylurea herbicide treatments.
Broadcast post-emergence applications of formulated sulfonylurea herbicides were performed at the 6-leaf development stage using four randomly distributed replications. Application rates were chosen to match the usual use rates of these herbicides in the crops they are registered in Europe. All herbicides except for metsulfuron-methyl were sprayed in combination with Citowet® non-ionic ethoxylated alcohol at 0.25% volume of formulated product per volume of water applied per hectare.
The evaluation of the maximum (i.e. peak) injury to sunflower varieties by sulfonylurea herbicides was measured by visual ratings, which are listed in Table 5. A rating of 0% phytotoxicity means no crop injury. […] A rating of 100% means the complete destruction of all plants.

[3] = test system: Homozygous resistant inbred lines, BC3-M4M12 (I), BC3-M4M11 (J) and BC3-M4M7 (K); assay: Test A summary, homozygous resistant inbred lines; details: in vivo
In short: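 Field-grown sunflower lines received broadcast post-emergence sulfonylurea herbicides at the 6-leaf stage, at European registered use rates, in four randomized replicates; all but metsulfuron-methyl included Citowet non-ionic surfactant at 0.25% v/v. Peak crop injury was scored visually as % phytotoxicity (0% none, 100% all plants destroyed).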

[4] = test system: BC4-M5M12 × PHA155 hybrid; assay: Test E injury to sunflower hybrid; assay type: in vivo
Description: Based on the results from Test D, a modified protocol was developed to include three timings of post-emergence treatment. The hybrid BC4-M5M12 (female parent)×PHA155 restorer line (male parent) described in Test C was used in this test. Various herbicide programs were tested using three replications. […] Seed coatings of these formulated herbicides were applied to 6 kg of seeds in such amount that considering the distribution of the coated seeds in each pot, the herbicide active ingredient (a.i.) application rates per hectare were as indicated.
The treatments were applied similar to the methods described for Test D. Pre-emergence applications were broadcast only, not soil incorporated. For pre-emergence application, the pots were sprayed using the high rates of the herbicides two days after sowing the sunflower seeds. Post-emergence treatments were applied at the 4-6 leaf stage of sunflower (corresponding to early stage of Orobanche attachment; identified as “T1”), the 6-8 leaf stage of sunflower (corresponding to the mid stage of Orobanche attachment; nodules <5 mm diameter; identified as “T2”) and 8-12 leaf stage of sunflower (corresponding to late stage of Orobanche attachment; identified as “T3”). The mid-stage applications included the high as well as low application rates of each herbicide.
For comparison were also included in this test other acetolactate synthase-inhibiting herbicides reported in the literature as giving good weed control of Orobanche (L. García-Torres et al., Weed Research 1994, 34, 395-402; L. García-Torres et al., Weed Technology 1995, 9, 819-824; J. Hershenhorn et al., Weed Technology 1998, 12, 108-114).

Structure (SMILES)	weed control, visual rating: Polygonum aviculare (Polygonum aviculare)	weed control, visual rating: Atriplex patula (Atriplex patula)	weed control, visual rating: Viola arvensis (Viola arvensis)	weed control, visual rating: Echinochloa crus-galli (Echinochloa crus-galli)	weed control, visual rating: Solanum nigrum (Solanum nigrum)	weed control, visual rating: Anagallis arvensis (Anagallis arvensis)	weed control, visual rating: Polygonum persicaria (Polygonum persicaria)	weed control, visual rating: Matricaria inodora (Matricaria inodora)	weed control, visual rating: Amaranthus retroflexus (Amaranthus retroflexus)	weed control, visual rating: Sinapis arvensis (Sinapis arvensis)	weed control, visual rating: Polygonum convolvulus (Polygonum convolvulus)	weed control, visual rating: Capsella bursa pastoris (Capsella bursa pastoris)	weed control, visual rating: Mercurialis annua (Mercurialis annua)	weed control, visual rating: Setaria viridis (Setaria viridis)	weed control spectrum [1]	tolerance of heterozygous resistant hybrids C to H [2]	tolerance of homozygous resistant inbred lines I, J, K [3]	also measured
COC(=O)c1ccccc1S(=O)(=O)NC(=O)N(C)c1nc(C)nc(OC)n1 [Tribenuron-methyl, tribenuron-methyl]	90%	100%	100%	65%	100%	100%	100%	100%	93%	100%	93%	100%	100%	65%	excellent broad-spectrum weed control	as tolerant as the three homozygous resistant lines	resistant	Phytotoxicity Rating After Treatment (BC4-M5M12 × PHA155; postemergence 11.25 g a.i./ha, 15 DAT): 18%
COC(=O)c1cccc(C)c1S(=O)(=O)NC(=O)Nc1nc(OCC(F)(F)F)nc(N(C)C)n1 [Triflusulfuron-methyl, triflusulfuron-methyl]	–	–	–	–	–	–	–	–	–	–	–	–	–	–	–	–	–	Phytotoxicity Rating After Treatment (BC4-M5M12 × PHA155; postemergence 7.5 g a.i./ha, 7 DAT): 22%; Phytotoxicity Rating After Treatment (BC4-M5M12 × PHA155; postemergence 7.5 g a.i./ha, 15 DAT): 22%; Phytotoxicity Rating After Treatment (BC4-M5M12 × PHA155; postemergence 7.5 g a.i./ha, 30 DAT): 25%; Phytotoxicity Rating After Treatment (BC4-M5M12 × PHA155; postemergence 15 g a.i./ha, 7 DAT): 38%; Phytotoxicity Rating After Treatment (BC4-M5M12 × PHA155; postemergence 15 g a.i./ha, 15 DAT): 45%; Phytotoxicity Rating After Treatment (BC4-M5M12 × PHA155; postemergence 15 g a.i./ha, 30 DAT): 43%; sunflower phytotoxicity ([4]; Test E rates): transitory phytotoxicity symptoms; Injury ([4]; post-emergence 18.75 g a.i./ha at T2): 0%
COC(=O)c1ccccc1S(=O)(=O)NC(=O)Nc1nc(C)nc(OC)n1 [Metsulfuron-methyl, metsulfuron-methyl]	100%	100%	100%	47%	97%	100%	100%	100%	99%	100%	92%	100%	100%	47%	excellent broad-spectrum weed control	as tolerant as the three homozygous resistant lines	resistant	sunflower phytotoxicity ([4]; in vivo): more likely to cause sunflower phytotoxicity
